US6387268B1 (priority 1998, dated 2002)
Like-named read-outs stand apart in the source and are kept apart here.

Target: rat α3/β4 nAChR (Rattus norvegicus, UniProt P04757+P12392)
Settings: 60 pM [3H]-EB; for retention volume of [3H]-EB: 9.5 ml without competitor
Experimental: The cultured cells in which rat α3/β4 subtype of neural nicotinic acetylcholine receptor (nAChR) were expressed by transfected cell line KXα3β4R2 were harvested in 30 ml of Tris-HCl buffer (50 mM, pH 7.4) and homogenized for 20 minutes with a Brinkman Polytron homogenizer. The homogenates were centrifuged at 35,000×g for 10 minutes and the supernatant was discarded. The resulting pellets were suspended in 6 ml of 2% cholate in Tris-HCl buffer (50 mM, pH 7.4) and stirred for two hours in an ice bath. After centrifugation at 35,000×g, the supernatant was collected for the immobilization. IAM packing materials (200 mg) were washed three times by centrifugation with Tris-HCl buffer (50 mM, pH 7.4). The IAM materials were suspended in 4 ml of receptor-detergent solution, stirred for one hour at room temperature and dialyzed against 2×1 L buffer for 24 hours at 4° C. When detergents were depleted from the mixture, the receptors were hydrophobically entrapped in the phospholipid monolayer on the surface of IAM materials. The receptor-IAM materials were washed with buffer by centrifugation at 4000×g.
The NR(α4β2)-IAM packing materials were packed in an HR glass column (Pharmacia Biotech) and connected with an HPLC pump. […] The elution profile was monitored by an on-line radioactivity HPLC detector.
The resulting column was used in the LC study of drug-NR binding using frontal chromatographic techniques with [^3H]-epibatidine (EB) as the marker ligand. A series of [^3H]-EB concentrations ranging from 60 pM to 600 pM were pumped through the (α3/β4)NR-IAM column2 to obtain elution profiles showing front and plateau regions. The concentration of the [^3H]-EB in the column eluent was monitored by an LC on-line radioactivity detector.
The binding of the [^3H]-EB on the (α3/β4)NR-IAM column was be altered by the addition of competitive NR-ligands to the mobile phase.

Chain of rat α3/β4 nAChR (P04757 26-499): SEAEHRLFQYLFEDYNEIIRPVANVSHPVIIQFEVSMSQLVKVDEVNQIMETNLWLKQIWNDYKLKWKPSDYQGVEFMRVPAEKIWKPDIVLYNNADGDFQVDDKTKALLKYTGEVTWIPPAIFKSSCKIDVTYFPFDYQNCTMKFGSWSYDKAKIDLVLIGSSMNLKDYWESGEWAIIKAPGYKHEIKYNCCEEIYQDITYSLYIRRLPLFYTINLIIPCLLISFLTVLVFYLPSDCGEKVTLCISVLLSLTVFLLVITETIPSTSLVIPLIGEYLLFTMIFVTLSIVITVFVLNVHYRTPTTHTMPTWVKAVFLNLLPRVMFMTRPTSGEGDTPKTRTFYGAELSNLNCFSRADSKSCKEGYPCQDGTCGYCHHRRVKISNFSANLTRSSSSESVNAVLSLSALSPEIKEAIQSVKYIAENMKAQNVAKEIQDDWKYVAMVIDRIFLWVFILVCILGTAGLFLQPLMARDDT
Chain of rat α3/β4 nAChR (P12392 22-495 limits assumed): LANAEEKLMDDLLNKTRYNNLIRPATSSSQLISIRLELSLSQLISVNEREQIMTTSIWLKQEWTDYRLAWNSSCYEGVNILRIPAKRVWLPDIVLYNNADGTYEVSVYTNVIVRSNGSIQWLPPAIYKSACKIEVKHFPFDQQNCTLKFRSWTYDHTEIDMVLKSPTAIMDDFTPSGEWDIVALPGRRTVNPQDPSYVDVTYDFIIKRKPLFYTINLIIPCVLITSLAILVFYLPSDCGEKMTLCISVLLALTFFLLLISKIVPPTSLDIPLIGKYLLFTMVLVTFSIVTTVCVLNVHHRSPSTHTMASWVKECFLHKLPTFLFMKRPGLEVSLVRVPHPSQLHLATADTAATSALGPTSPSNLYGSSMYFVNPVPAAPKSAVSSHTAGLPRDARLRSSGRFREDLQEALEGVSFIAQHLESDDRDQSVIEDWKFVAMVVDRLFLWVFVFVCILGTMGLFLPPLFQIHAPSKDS

In the case of `CN1CCCC1c1cccnc1` (stereo not drawn) [nicotine], the “mobile phase concentration required to decrease the retention volume of [3H]-EB from 9.5 ml to 6 ml” value is reported as 0.045 µM.

`Clc1ccc(C2CC3CCC2N3)cn1` (racemic) [(±)-EB, epibatidine] was tested, and the “mobile phase concentration required to decrease the retention volume of [3H]-EB from 9.5 ml to 6 ml” value was 0.00012 µM.

For `c1cncc(OC[C@@H]2CCN2)c1` [A85380], the “mobile phase concentration required to decrease the retention volume of [3H]-EB from 9.5 ml to 6 ml” value was 17000 µM, the “retention volume of [3H]-EB” value (10 nM A85380 in mobile phase) was 6.6 mL and the “retention volume of [3H]-EB” value (100 nM A85380 in mobile phase) was 1.9 mL.

For `C[N+](C)(C)CCOC(N)=O` [carbachol], the “mobile phase concentration required to decrease the retention volume of [3H]-EB from 9.5 ml to 6 ml” value was 1.3 µM.
